Experiments:
C57BL/6 mice = experiment: In vivo delivery of EPO-encoded mRNA LNP via intravenous route, serum EPO ELISA; set-up: key to EPO Protein expression: IV in mice: *: The number of asterix symbols indicates protein expression levels interpreted by the inventors from quantitative data; **: The number of asterix symbols indicates protein expression levels interpreted by the inventors from quantitative data; ***: The number of asterix symbols indicates protein expression levels interpreted by the inventors from quantitative data; ****: The number of asterix symbols indicates protein expression levels interpreted by the inventors from quantitative data; *****: The number of asterix symbols indicates protein expression levels interpreted by the inventors from quantitative data; *******: The number of asterix symbols indicates protein expression levels interpreted by the inventors from quantitative data; details: for EPO Protein expression: IV in mice: qualitative grade interpreted from quantitative data
Text: Lipid Nanoparticles with the composition IL/DSPC/Cholesterol/PEG-DMG2000 (LM 02—see Table 3) were used to encapsulate recombinant human erythropoietin (EPO) encoded mRNA with 5-moU modifications [TriLink CleanCapo 5-moU EPO mRNA L7201]. To create the LNP, lipid mix in ethanol was microfluidically mixed with a low PH buffered solution of 5-moU EPO mRNA mixer at an N/P ratio of 6 using a NanoAssemblr® Ignite™ microfluidic mixer. The microfluidically mixed particles were downstream processed using Amicon® ultra 15 10 kDa MWCO units (EMD Millipore) filtration technique. The RNA loaded lipid particles were then characterized for size, PDI and Encapsulation Efficiency (EE). Size and PDI were measured using dynamic light scattering techniques described above, and nucleic acid encapsulation efficiency was calculated using a Quant-iT RiboGreen RNA assay as described supra, modified to use hEPO mNA as the standard instead if the standard RNA in the kit. The hydrodynamic diameter of these mRNA-LNPs was ˜70 nm with a PDI in the range of 0.02 to 0.1 and an encapsulation efficiency of ˜97.8%.
Animals were handled according to the Institutional Animal Care and Use Committee ethics protocols. For experiments, 6-8 week old C57BL/6 mice were purchased from Envigo (South Kent, WA, USA). For in vivo activity, female C57BL/6 mice were treated intravenously with EPO mRNA LNPs at specified dosages of 0.5-3 mg/Kg. Samples of 50-75 μL of blood were collected 6 h post administration via saphenous vein, and at regular time intervals of 24 h or 48 h.
After harvest, blood was immediately prepared to produce serum samples using standard techniques, and stored at −80 degrees C. Briefly, after collection, the blood was allowed to clot at room temperature for 15-30 minutes. The clot was removed by centrifuging the tubes at 1000-2000×g for 10 min at 4 degrees Celsius. The clear golden-yellow color supernatant was carefully removed and transferred to sterile screw-capped clear polypropylene tubes on ice. The serum was then stored, if necessary, at −80° C. until analysis.
Samples were thawed, then analyzed at appropriate dilutions for EPO protein expression and for cytokine/chemokine levels. The total serum EPO levels were evaluated using Quantikine® IVD EPO ELISA kit (Bio-Techne, Minneapolis, MN, USA).
Following i.v administration of a 0.5 mg/Kg dose of recombinant human EPO-encoded mRNA LNPs containing ionizable lipid MC3, PNI 121 or PNI 123 using the LM02 composition at N/P 6, EPO expression levels at 6 h (upper, FIG. 6) and at 24 h (lower, FIG. 6) in C56BL/6 mice were examined; hEPO protein was measured using Quantikine® IVD® ELISA Human Erythropoietin Immunoassay protocol.

primary human T cells = experiment: GFP mRNA LNP transfection of isolated primary human T cells, flow cytometry; format: cell-based; set-up: key to GFP Protein expression: Human T cell: *: The number of asterix symbols indicates protein expression levels interpreted by the inventors from quantitative data; **: The number of asterix symbols indicates protein expression levels interpreted by the inventors from quantitative data; ***: The number of asterix symbols indicates protein expression levels interpreted by the inventors from quantitative data; ****: The number of asterix symbols indicates protein expression levels interpreted by the inventors from quantitative data; *****: The number of asterix symbols indicates protein expression levels interpreted by the inventors from quantitative data; *******: The number of asterix symbols indicates protein expression levels interpreted by the inventors from quantitative data; details: for GFP Protein expression: Human T cell: qualitative grade interpreted from quantitative data; for transfecting T cells in vitro, Mean Fluorescence Intensity (MFI): dose 500 ng, MC3 as control, FIG. 3
Method: Downstream processing and analysis of treated T cells were done with flow cytometry and ELISA. Reagents were from Stemcell Technologies, Vancouver, Canada unless otherwise stated. […] At 48H following LNP-mediated mRNA exposure, the treated T cells were harvested by transferring the cell suspensions to pre-labeled 1.5 mL tubes and centrifuged 300×G at 4 degrees C. for 10 minutes. Supernatant was removed and the pellet resuspended in PBS. An amount of 0.5 ul of BD Horizon™ Fixable Viability Stain 575V™ (BD Biosciences), was added, and the mixture incubated in the dark for 10 minutes at RT. This stain binds to intracellular amines of a permeable plasma cell membrane of a necrotic cell and can be used to differentiate a viable cell and a non-viable cell during a flow cytometry assay.
The cells were centrifuged again as before, then washed twice with 1 mL of Stain buffer (BSA, BD Pharminigen), and the washed pellet was placed in 100 μl BSA. The following antibodies were added to each tube of treated cells in 2 μl volumes: CD25, CD8, CD4, (PerCP-Cy™ 5.5 Mouse Anti Human CD25, BV786 Mouse Anti-Human CD8 Clone RPA-T8, and APC-Cy™7 Mouse Anti-Human CD4 Clone SK3, all from BD Pharmingen™) with the exception of the controls: in the eGFP only sample and viability control, no antibody was added. In the single stain compensation tubes, only one antibody per tube was added.
The tubes were incubated at 4 degrees C. for 30 min, whereupon 400 μl of stain buffer (BSA) was added, and the cells were centrifuged again. Cells were washed once with 1 mL of stain buffer and spun down again. Cell pellets were resuspended in 1 mL of stain buffer and added to pre-labeled flow tubes with cell strainer caps (Corning Falcon).
After transfection, flow cytometry was used to generate eGFP or EPO expression levels as well as MFI values for the studies. […]
After transfection, flow cytometry was used to general GFP expression levels as well as MFI values for the studies.
Ionizable lipids of the invention, and MC3, were compared in a composition of CT10 at an N/P ratio of 10 for their ability to induce transfection as measured by MFI of labeled mRNA in T cells (as measured by flow cytometry).
T Cells were prepared and treated as previously described using negative selection and the triple activation protocol.
In order to expose the isolated and activated T cells (Day 0) to the formulated mRNA, […] media, with 1 μg/mL of Recombinant Human ApoE4 (“ApoE”) (Peprotech Inc., Montreal, Canada).
The dose of mRNA LNP was calculated based upon Ribogreen™ assay results. T cells were counted through Trypan blue (Sigma) exclusion and diluted to 500,000 cells/mL. Briefly, in a 12 well plate, 1 mL was aliquoted into each well. ApoE was added to a final concentration of 1 μg/mL in each well. Based upon the calibration, the required amount of mRNA LNP was added (day 3 to 7), and the plate incubated for 48 hours.

SMILES	EPO Protein expression: IV in mice (C57BL/6 mice)	GFP Protein expression: Human T cell (primary human T cells)	also measured
CC/C=C\CC1C(CC(=O)OCC(COCCCCCCCC/C=C\C/C=C\CCCCC)OCCCCCCCC/C=C\C/C=C\CCCCC)CCC1OC(=O)CCCN(C)C (stereo not shown) [PNI 101]	**	****	transfection efficiency in T cells from different donors (primary human T cells; CT10, N/P 10, 48 h after treatment, six donors, FIG. 2): greater than those containing MC3 in six tested donors; Cell viability (primary human T cells; CT10, N/P 10, compared to untreated cells (control)): unaffected; transfection efficiency (primary human T cells; CT10 composition, N/P 10, LNP 7 days post activation, FIG. 1): greater transfection efficiency than either DODMA or MC3
CC/C=C\CC1C(CC(=O)OCC(COCCCCCCCC/C=C\C/C=C\CCCCC)OCCCCCCCC/C=C\C/C=C\CCCCC)CCC1OC(=O)C1(C)CCN(C)CC1 (stereo not shown) [PNI 123]	***	***	delivering hEPO and expressing hEPO in vivo (C57BL/6 mice; i.v., 1 and 3 mg/Kg, LM02, N/P 6, 6 h and 24 h, FIG. 7): performed very well against MC3 LNP
CC/C=C\CC1C(CC(=O)OCC(COCCCCCCCC/C=C\C/C=C\CCCCC)OCCCCCCCC/C=C\C/C=C\CCCCC)CCC1OC(=O)C1CCN(C)CC1 (stereo not shown) [PNI 132]	***	*******	transfecting T cells in vitro, Mean Fluorescence Intensity (MFI) (primary human T cells; CT10 composition): substantially as good or better than MC3
CC/C=C\CC1C(CC(=O)OC(CCCCCCCCC2CC2CCCCCCCC)CCCCCCCCC2CC2CCCCCCCC)CCC1OC(=O)CCCN(C)C (stereo not shown) [PNI 516]	****	*****	serum rhEPO expression level (C57BL/6 mice; i.v., 0.5 mg/Kg, FIG. 8): on par with MC3
CC/C=C\CC1C(CC(=O)OCC(COCCCCCCCC/C=C\C/C=C\CCCCC)OCCCCCCCC/C=C\C/C=C\CCCCC)CCC1OC(=O)CCCN(CC)CC (stereo not shown) [PNI 542]	***	*****	–
CC/C=C\CC1C(CC(=O)OCC(COCCCCCCCCC2CC2CCCCCCCC)OCCCCCCCCC2CC2CCCCCCCC)CCC1OC(=O)CCN(C)C (stereo not shown) [PNI 544]	***	***	–
CCCCCCCCC1CC1CCCCCCCCOCC(COC(=O)CC1CCC(OC(=O)CCCN(C)C)C1CC1CC1CC)OCCCCCCCCC1CC1CCCCCCCC (stereo not shown) [PNI 545]	***	*****	–
CCCCCCCCC1CC1CCCCCCCCOCC(COC(=O)CC1CCC(OC(=O)CCN(C)C)C1CC1CC1CC)OCCCCCCCCC1CC1CCCCCCCC (stereo not shown) [PNI 546]	*	*	–
CC/C=C\CC1C(CC(=O)OC(CCCCCCCCC2CC2CCCCCCCC)CCCCCCCCC2CC2CCCCCCCC)CCC1OC(=O)CCN(C)C (stereo not shown) [PNI 549]	***	**	–
CC/C=C\CC1C(CC(=O)OCCC(CCCCCCCC)OC(=O)C(CCCCCC)CCCCCCCC)CCC1OC(=O)CCN(C)C (stereo not shown) [PNI 554]	***	***	–
CC/C=C\CC1C(CC(=O)OCC(COCCCCCCCC/C=C\C/C=C\CCCCC)OCCCCCCCC/C=C\C/C=C\CCCCC)CCC1OC(=O)CC1CCN(C)C1 (stereo not shown) [PNI 557]	**	***	–
CC/C=C\CC1C(CC(=O)OCC(COCCCCCCCC/C=C\C/C=C\CCCCC)OCCCCCCCC/C=C\C/C=C\CCCCC)CCC1OC(=O)CCCN1CCCC1 (stereo not shown) [PNI 558]	***	*	–
CC/C=C\CC1C(CC(=O)OCC(COCCCCCCCC/C=C\C/C=C\CCCCC)OCCCCCCCC/C=C\C/C=C\CCCCC)CCC1OC(=O)CC1CCCCN1C (stereo not shown) [PNI 559]	***	**	–
CC/C=C\CC1C(CC(=O)OC(CCCCCCCCC2CC2CCCCCCCC)CCCCCCCCC2CC2CCCCCCCC)CCC1OC(=O)C1(C)CCN(C)CC1 (stereo not shown) [PNI 560]	****	****	–
CC/C=C\CC1C(CC(=O)OCCC(CCCCCCCC)OC(=O)C(CCCCCC)CCCCCCCC)CCC1OC(=O)C1(C)CCN(C)CC1 (stereo not shown) [PNI 565]	***	*******	transfecting T cells in vitro, Mean Fluorescence Intensity (MFI) (primary human T cells; CT10 composition): substantially as good or better than MC3

Source: patent publication US12503432B2, “Ionizable lipids for nucleic acid delivery” (Global Life Sciences Solutions Canada ULC, priority 2019, dated 2025)
